Experiments:
[1] = CHF patients, enalapril in addition to conventional therapy; cited from earlier work
A549 tumors = test: A549 lung-cancer xenograft model; type: in vivo, athymic nude mice; conditions: h10H5.vX 5 mg/kg IP two times per week; vinorelbine 9 mg/kg weekly for first three weeks
Text: (§1) Female nude (nu/nu) and C.B-17 SCID beige mice were obtained from Charles Rivers Laboratories, Inc. (Hollister, Calif.). Animals were about six to eight weeks old and weighed about 25 grams each. Mice were acclimated to study conditions for at least three days before tumor-cell inoculations. The animals were housed in standard rodent micro-isolator cages. Only animals that appeared to be healthy and that were free of obvious abnormalities were used for the study. Each mouse was given a subcutaneous injection of SK-N-AS cells (10 million), SW527 cells (5 million), Colo205 cells (5 million), or A549 cells (5 million) into the dorsal right flank in a volume of 0.2 mL. Data collected from each experimental group were expressed as mean tumor volume±the standard error of the mean (SEM). Tumors were monitored until they reached a mean volume of 130-260 mm3. […] Tumors were measured twice weekly throughout the experiment starting on the first day of treatment. Tumor volumes were measured in two dimensions (length and width) using ULTRA CAL-IV™ calipers (Model 54-10-111, Fred V. Fowler Company, Inc.; Newton, Mass.), and calculated using the formula of: […]
(§2) Tumor-inhibition and body-weight graphs were plotted using […]™ 3.6 software (Synergy Software; Reading, Pa.). […]

[2] = tested on: Colo205-e215 xenograft tumors; test: Colo205-e215 xenograft, combination with 5-FU; type: in vivo, athymic nude mice; conditions: h10H5.vX weekly IP; 5-FU 100 mg/kg weekly for first three weeks
Text: as §1, §2

[3] = biological target: T1, IGF-1R α- and β-subunit in SK-N-AS cells (Homo sapiens, UniProt P08069); test: h10H5-induced IGF-1R down-regulation with proteasome or lysosomal protease inhibitors; type: cell-based; conditions: one hour pretreatment; 30 μM bortezomib or 5 μM pepstatin A and 10 μg/ml leupeptin
T1 construct: h10H5-induced IGF-1R downregulation, SK-N-AS cells were pretreated; endogenous in cells; host or cells: SK-N-AS
Description: Both proteasome and lysosome pathways have been implicated in ligand-mediated IGF-1R degradation. To examine whether these pathways contribute to h10H5-induced IGF-1R downregulation, SK-N-AS cells were pretreated with either a combination of 5 μM of pepstatin A and 10 μg/ml of leupeptin or 30 μM of VELCADE® bortezomib for one hour, and subsequently exposed to h10H5 treatment for 1 to 8 hours in the presence of protease or protesome inhibitors. Cell lysates were analyzed for IGF-1R α-subunit and β-subunit by Western blotting. β-actin was used as a loading control. Because the extracellular (ECD) and intracellular (ICD) domains are exposed to different cellular environments during the internalization and trafficking processes, antibodies that specifically react to the α-subunit that is a major part of ECD or the C-terminus of the β-subunit, and therefore a part of ICD, were used for Western blot analysis.

CCOC(=O)[C@H](CCc1ccccc1)N[C@@H](C)C(=O)N1CCC[C@H]1C(=O)O [enalapril]
reduction of the risk of developing cardiac cachexia [1]: 19%

CCC1=C[C@@H]2CN(C1)Cc1c([nH]c3ccccc13)[C@@](C(=O)OC)(c1cc3c(cc1OC)N(C)[C@H]1[C@@](O)(C(=O)OC)[C@H](OC(C)=O)[C@]4(CC)C=CCN5CC[C@]31[C@@H]54)C2 [vinorelbine]
inhibition of tumor growth (TGI) at day 21 (A549 tumors): 45%

O=c1[nH]cc(F)c(=O)[nH]1 [5-FU, 5-fluorouracil]
% TGI at day 27 [2]: 53%

CC(C)C[C@H](NC(=O)[C@H](Cc1ccccc1)NC(=O)c1cnccn1)B(O)O [VELCADE® bortezomib, bortezomib]
effect on h10H5-induced IGF-1R subunit downregulation [3]: more effective in preventing β-subunit downregulation

Reference: patent US20090068110A1, “ANTIBODIES TO INSULIN-LIKE GROWTH FACTOR RECEPTOR” (Genentech, Inc., priority 2006, published 2009)
